Usually GI50 stands for the concentration at which growth is held to half of that of the control. High values mean lower sensitivity of the cells, low ones greater sensitivity of the cells. What is called IC50 is the point on the concentration scale where inhibition reaches its midpoint. The low end stands for greater potency, the high end for weaker potency.

SMILES strings stand for the structures. Entries after “also recorded” stand apart in the source; their conditions may differ.

These results are taken from paper PMC5787524, “Discovery of a FLT3 inhibitor LDD1937 as an anti-leukemic agent for acute myeloid leukemia” (Oncotarget, 2017).

For data set [1], the system named is PARP cleavage in MV-4-11 cells. Briefly: PARP cleavage western blot. The format is cell-based, human. Conditions: MV-4-11, 24 h. How it is done: Cells were lysed in SDS Lysis buffer (12 mM Tris-Cl, pH 6.8, 5% glycerol, and 0.4% SDS), and the protein concentrations were measured with the SMART BCA Protein Assay kit (iNtRON Biotechnology, Korea). The proteins were resolved with SDS-polyacrylamide gel electrophoresis followed by transfer to PVDF membranes (Millipore, Billerica, MA, USA) and incubated overnight with the appropriate antibodies. The antibodies used were as follows: phospho-STAT5 (p-STAT5; rabbit polyclonal IgG; #9351, 1:1,000), cyclin D1 (rabbit polyclonal IgG; #2922, 1:1,000), and PARP (rabbit polyclonal IgG; #9542, 1:1,000) from Cell Signaling Technology (Danver, MA, USA), STAT5 (rabbit polyclonal IgG; #sc-835, 1:1,000) from Santa Cruz (Santa Cruz, CA, USA), and β-actin (mouse monoclonal IgG; # A5441, 1:5000) from Sigma-Aldrich. Goat anti-rabbit IgG (#111-035-003; 1;5,000) and anti-mouse IgG (#115-035-033; 1:5,000) secondary antibodies were obtained from Jackson ImmunoResearch Laboratories, Inc. (West Grove, PA, USA).
On the technique in general: In western blotting, separated proteins are transferred to a membrane and probed.

The next data set relates to PC-3 cells. The data set is described as follows: Cell viability / growth inhibition (EZ-Cytox), PC-3. The format is cell-based. The settings on record: Homo sapiens, Table 2, 72 h. How it is done:
MV-4-11 human acute myeloid leukemia cells were purchased from the American Type Culture Collection (ATCC, Rockville, MD, USA, CRL-9591), and the cells were cultured in IMDM medium (Sigma Co., St. Louis, MO, USA) supplemented with 10% fetal bovine serum, 1% penicillin/streptomycin and 4 mM L-glutamine (Life Technology, Grand Island, NY). Jurkat (human acute T lymphocytic leukemia, ATCC TIB-152) and K562 (human chronic myelogenous leukemia, ATCC CCL-243) cells were cultured in RPMI-1640 (Sigma Co.), and MCF7 (human breast adenocarcinoma, ATCC HTB-22) and PC-3 (human prostate adenocarcinoma, ATCC CRL-1435) cells were cultured in DMEM (Sigma Co.) medium supplemented with 10% fetal bovine serum and 1% penicillin/streptomycin. The cultured cells were incubated at 37°C with 5% CO2. Cell viability was assessed with a tetrazolium-based assay using the EZ-Cytox Cell Viability Assay kit (DaeilLab, Korea). Briefly, 2,000 ∼ 15,000 cells were plated in 96-well flat bottom plates in 100 µl of medium. The next day, the cells were treated with compounds along with dimethyl sulfoxide (DMSO, Fisher, Waltham, MA, USA) as a negative control. […] After incubation, the optical density (OD) was measured at a wavelength of 450 nm with a Victor multilabel reader (Perkin Elmer, Waltham, MA, USA). The IC50 was calculated with nonlinear regression using Prism version 5.01 (GraphPad, La Jolla, CA, USA).

In another data set the test system is MV-4-11 xenograft. Briefly: MV-4-11 mouse tumor xenograft. It counts as in vivo, BALB/c nu/nu mice. How it is done:
MV-4-11 cells were inoculated subcutaneously in the flank of female BALB/c nu/nu (athymic nude) mice (5 × 10^6 cells per mouse). […] The drug or the control PBS was administered daily for a duration of 21 days. Tumor sizes were measured twice a week for 21 days, and the tumor volumes were calculated with the following formula: V (volume) = X (length) × D (width)^2/2. After 21 days, the mice were sacrificed, and the tumor weights were measured.

A further data set has as its target T1, IRAK4 (Homo sapiens, UniProt Q9NWZ3).
T1 sequence (Q9NWZ3 1-460): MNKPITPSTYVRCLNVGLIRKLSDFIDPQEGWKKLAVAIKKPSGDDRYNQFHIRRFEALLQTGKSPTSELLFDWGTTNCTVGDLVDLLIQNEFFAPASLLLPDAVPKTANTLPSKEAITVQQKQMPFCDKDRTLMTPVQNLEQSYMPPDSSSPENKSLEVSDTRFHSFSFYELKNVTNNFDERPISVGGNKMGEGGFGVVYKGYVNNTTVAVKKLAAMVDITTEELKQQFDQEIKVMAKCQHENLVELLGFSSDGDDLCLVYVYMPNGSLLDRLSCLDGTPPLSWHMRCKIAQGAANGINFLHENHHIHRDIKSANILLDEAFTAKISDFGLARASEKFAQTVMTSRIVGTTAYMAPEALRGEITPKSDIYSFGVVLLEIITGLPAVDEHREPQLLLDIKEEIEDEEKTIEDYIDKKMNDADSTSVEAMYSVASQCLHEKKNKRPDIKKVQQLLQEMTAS
The data set is described as follows: In vitro IRAK4 kinase assay (LANCE Ultra). It counts as biochemical. How it is done:
The in vitro kinase assay for IRAK4 was done with the LANCE Ultra Kinase Activity Assay (Perkin Elmer) containing the ULight-p70S6K (Thr389) peptide (phosphorylation motif […]). The assays consisted of the enzyme mixed with serially diluted compounds, 50 nM ULight-p70S6K (Thr389) peptide, and 500 μM ATP prediluted in kinase buffer (50 mM HEPES (pH 7.5), 10 mM MgCl2, 1 mM EGTA, 2 mM DTT, and 0.01% Tween20). Ten microliters of the total volume of the kinase reaction were added to the wells of a 96-well assay plate. The kinase reactions were incubated for 90 min. at 25°C and stopped by the addition of 10 mM EDTA. For the detection of the phospho-substrate, the Eu-anti-phospho-p70S6K (Thr389) antibody diluted in detection buffer was added to a final concentration of 2 nM, and the reactions were then incubated for 1 h at 25°C. The signal was measured on an EnVision multi-label reader.
In general terms: Time-resolved FRET reads energy transfer from a long-lived donor to a nearby acceptor.

The next data set deals with MV-4-11 cells. The data set is described as follows: Cell cycle analysis by PI flow cytometry. The settings on record: 24 h. The format is cell-based, human. How it is done:
For cell cycle analysis, cells were seeded in a 10 cm plate (2 × 10^6 cells per well) and treated with the LDD1937 compound. Then, the cells were fixed with ethanol and treated with RNase A (4 mg/mL) and stained with propidium iodide (PI) (Sigma Co). Cell cycle distribution was analyzed by flow cytometry with an Accuri C6 flow cytometer.

In the case of `COC(=O)c1ccc2c(c1)/C(=C1/Nc3ccccc3/C1=N\OCCN1CCNCC1)C(=O)N2.Cl.Cl` [LDD1937, methyl (2Z,3E)-2′-oxo-3-((2-(piperazin-1-yl)ethoxy)imino)-[2,3′-biindolinylidene]-5′-carboxylate dihydrochloride], the “cleaved PARP” value in data set [1] (1 nM) is “an increase in the cleaved PARP was detected”. Further, in data set [1] (western blot), the PARP cleavage entry was “induced PARP cleavage in a dose-dependent manner”. The 50% growth inhibitory concentration (GI50) in the data set with PC-3 cells worked out at 1100 ± 140 nM. Further, in the data set with MV-4-11 xenograft (5 mg/kg intravenous daily, day 21, vs control), the tumor weight result is listed as “significant reduction”. The “tumor volume / tumor mass” value with MV-4-11 xenograft (10 mg/kg intravenous daily for 21 days) is given as “the tumor disappeared from day 3; also recorded: completely disappear from day 3”. In the data set with MV-4-11 xenograft (5 and 10 mg/kg intravenous daily, administration period, between groups), the body weight result is given as “no significant difference in body weight”. For the same compound, the “tumor volume and weight” value in the data set with MV-4-11 xenograft (5 and 10 mg/kg intravenous, vs control) was “significantly reduced”. The compound further displayed a half-maximal inhibitory concentration (IC50) at IRAK4 of 300 nM. Moreover, in the data set on MV-4-11 cells (10 nM), the “G0/G1 Percent” value is given as 54.4%. The “Sub-G1 Percent” value in the data set with MV-4-11 cells (100 nM) came out at 31.3%.
